Measured values as given in article PMC7265341, “Quantifying CDK inhibitor selectivity in live cells” (Nature Communications, 2020).
Where two headings read alike, the source gives them in different places.

Tests used:
[1] = biological target: CDK1/Cyclin E1 (Homo sapiens, UniProt P06493); test: NanoBRET live-cell target engagement, CDK1-NanoLuc/Cyclin E1 in HEK-293; assay type: binding
[2] = biological target: CDK5/CDK5R1 (Homo sapiens, UniProt Q00535); test: NanoBRET live-cell target engagement, CDK5-NanoLuc/CDK5R1 in HEK-293; assay type: binding
Chain of CDK5/CDK5R1 (Q00535 whole entry): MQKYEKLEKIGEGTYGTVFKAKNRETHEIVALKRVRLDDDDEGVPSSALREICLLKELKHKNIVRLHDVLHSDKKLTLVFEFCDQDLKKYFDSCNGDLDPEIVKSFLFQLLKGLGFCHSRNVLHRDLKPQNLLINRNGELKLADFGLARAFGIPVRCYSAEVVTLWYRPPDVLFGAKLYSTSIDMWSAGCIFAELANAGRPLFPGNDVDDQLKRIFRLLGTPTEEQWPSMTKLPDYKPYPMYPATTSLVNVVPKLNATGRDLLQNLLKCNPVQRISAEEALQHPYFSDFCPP
Chain of CDK5/CDK5R1 (Q15078 whole entry partner): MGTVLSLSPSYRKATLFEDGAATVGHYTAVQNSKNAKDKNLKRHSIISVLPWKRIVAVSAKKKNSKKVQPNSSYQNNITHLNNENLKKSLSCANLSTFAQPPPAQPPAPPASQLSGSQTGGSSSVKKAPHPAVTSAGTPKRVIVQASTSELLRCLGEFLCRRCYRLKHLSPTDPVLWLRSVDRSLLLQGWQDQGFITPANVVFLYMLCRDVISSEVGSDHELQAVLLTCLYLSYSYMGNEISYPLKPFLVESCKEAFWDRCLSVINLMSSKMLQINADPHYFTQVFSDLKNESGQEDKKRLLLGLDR

[3] = biological target: CDK9/Cyclin K (Homo sapiens, UniProt P50750); test: NanoBRET live-cell target engagement, NanoLuc-CDK9/Cyclin K in HEK-293; assay type: binding; conditions: CDK9/K
Chain of CDK9/Cyclin K (P50750 whole entry): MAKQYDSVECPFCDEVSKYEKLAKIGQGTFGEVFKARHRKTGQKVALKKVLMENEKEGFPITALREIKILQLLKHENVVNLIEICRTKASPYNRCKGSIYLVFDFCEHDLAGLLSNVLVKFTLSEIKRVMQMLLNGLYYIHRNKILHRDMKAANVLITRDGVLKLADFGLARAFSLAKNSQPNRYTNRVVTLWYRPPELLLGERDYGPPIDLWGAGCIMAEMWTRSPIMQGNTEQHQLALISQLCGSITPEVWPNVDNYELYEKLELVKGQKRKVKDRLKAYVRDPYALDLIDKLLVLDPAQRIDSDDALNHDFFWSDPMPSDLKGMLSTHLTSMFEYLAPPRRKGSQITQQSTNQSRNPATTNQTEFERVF
Chain of CDK9/Cyclin K (O75909 whole entry partner): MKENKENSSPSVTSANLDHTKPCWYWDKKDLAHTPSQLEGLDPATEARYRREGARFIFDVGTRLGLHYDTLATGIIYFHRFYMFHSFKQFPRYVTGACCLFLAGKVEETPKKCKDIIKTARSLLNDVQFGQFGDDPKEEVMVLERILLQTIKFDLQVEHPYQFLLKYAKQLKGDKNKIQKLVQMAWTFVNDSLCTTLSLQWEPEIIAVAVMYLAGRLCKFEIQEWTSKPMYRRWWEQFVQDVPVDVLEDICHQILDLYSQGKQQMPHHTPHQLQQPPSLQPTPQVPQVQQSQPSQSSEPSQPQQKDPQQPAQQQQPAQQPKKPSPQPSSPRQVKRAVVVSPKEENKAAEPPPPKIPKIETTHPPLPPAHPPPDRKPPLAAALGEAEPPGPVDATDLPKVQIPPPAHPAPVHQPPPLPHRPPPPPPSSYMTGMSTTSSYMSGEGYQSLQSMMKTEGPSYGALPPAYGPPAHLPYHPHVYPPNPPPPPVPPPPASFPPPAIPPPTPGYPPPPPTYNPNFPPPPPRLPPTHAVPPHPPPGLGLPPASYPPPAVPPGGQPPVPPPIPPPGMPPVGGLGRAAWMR

[4] = biological target: CDK6/Cyclin D1 (Homo sapiens, UniProt Q00534); test: NanoBRET live-cell target engagement, NanoLuc-CDK6/Cyclin D1 in HEK-293; assay type: binding; conditions: CDK6/D1; for IC50: read-out: IC50
Chain of CDK6/Cyclin D1 (Q00534 whole entry): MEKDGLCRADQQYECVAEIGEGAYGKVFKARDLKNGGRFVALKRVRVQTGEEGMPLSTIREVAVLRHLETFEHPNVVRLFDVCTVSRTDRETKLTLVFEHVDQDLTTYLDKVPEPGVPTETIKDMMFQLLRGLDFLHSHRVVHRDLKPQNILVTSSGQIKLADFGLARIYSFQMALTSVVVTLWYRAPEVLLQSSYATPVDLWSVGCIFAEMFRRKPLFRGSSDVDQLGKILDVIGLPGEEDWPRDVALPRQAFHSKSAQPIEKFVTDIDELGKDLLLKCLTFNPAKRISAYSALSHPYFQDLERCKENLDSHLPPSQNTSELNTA
Chain of CDK6/Cyclin D1 (P24385 whole entry partner): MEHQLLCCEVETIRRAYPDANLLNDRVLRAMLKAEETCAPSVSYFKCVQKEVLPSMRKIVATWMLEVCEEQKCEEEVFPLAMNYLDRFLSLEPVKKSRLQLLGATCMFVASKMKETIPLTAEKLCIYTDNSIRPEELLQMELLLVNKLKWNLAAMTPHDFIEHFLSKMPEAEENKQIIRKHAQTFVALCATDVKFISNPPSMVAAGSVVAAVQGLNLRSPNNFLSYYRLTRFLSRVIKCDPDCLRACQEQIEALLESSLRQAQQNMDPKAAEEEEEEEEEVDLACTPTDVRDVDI

[5] = biological target: CDK20/Cyclin H (Homo sapiens, UniProt Q8IZL9); test: NanoBRET live-cell target engagement, NanoLuc-CDK20/Cyclin H in HEK-293; assay type: binding; conditions: CDK20/H
[6] = biological target: CDK8/Cyclin C (Homo sapiens, UniProt P49336); test: NanoBRET live-cell target engagement, NanoLuc-CDK8/Cyclin C in HEK-293; assay type: binding; conditions: CDK8/C
Chain of CDK8/Cyclin C (P49336 whole entry): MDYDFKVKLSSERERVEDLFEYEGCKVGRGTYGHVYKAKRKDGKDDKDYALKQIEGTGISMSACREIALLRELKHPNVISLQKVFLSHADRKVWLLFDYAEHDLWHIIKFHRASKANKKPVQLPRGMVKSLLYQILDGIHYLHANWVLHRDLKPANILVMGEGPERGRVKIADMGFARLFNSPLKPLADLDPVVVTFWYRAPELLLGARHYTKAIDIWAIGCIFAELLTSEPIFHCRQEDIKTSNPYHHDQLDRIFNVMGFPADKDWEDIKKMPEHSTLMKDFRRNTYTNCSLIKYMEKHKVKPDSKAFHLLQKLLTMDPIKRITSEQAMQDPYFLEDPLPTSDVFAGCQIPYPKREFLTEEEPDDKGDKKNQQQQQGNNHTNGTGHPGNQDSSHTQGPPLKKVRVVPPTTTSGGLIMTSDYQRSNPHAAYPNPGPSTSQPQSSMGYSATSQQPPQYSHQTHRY
Chain of CDK8/Cyclin C (P24863 whole entry partner): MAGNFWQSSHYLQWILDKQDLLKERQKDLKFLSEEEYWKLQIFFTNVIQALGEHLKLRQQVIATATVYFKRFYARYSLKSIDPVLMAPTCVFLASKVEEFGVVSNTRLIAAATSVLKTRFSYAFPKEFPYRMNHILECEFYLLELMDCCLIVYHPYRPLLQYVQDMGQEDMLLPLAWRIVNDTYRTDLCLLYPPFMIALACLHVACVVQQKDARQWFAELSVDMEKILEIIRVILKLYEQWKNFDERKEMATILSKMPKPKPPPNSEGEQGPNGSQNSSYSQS

[7] = biological target: CDK4/Cyclin D1 (Homo sapiens, UniProt P11802); test: NanoBRET live-cell target engagement, NanoLuc-CDK4/Cyclin D1 in HEK-293; assay type: binding; conditions: CDK4/D1; for IC50: read-out: IC50
Chain of CDK4/Cyclin D1 (P11802 whole entry): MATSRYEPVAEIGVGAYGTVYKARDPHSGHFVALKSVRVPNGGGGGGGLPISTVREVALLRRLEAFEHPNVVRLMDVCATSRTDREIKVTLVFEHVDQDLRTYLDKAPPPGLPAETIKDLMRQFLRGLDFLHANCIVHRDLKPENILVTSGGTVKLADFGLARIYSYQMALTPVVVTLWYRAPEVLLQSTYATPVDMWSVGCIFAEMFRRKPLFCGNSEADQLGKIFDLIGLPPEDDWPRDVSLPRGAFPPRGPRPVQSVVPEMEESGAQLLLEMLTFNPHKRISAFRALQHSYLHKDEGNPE
Chain of CDK4/Cyclin D1 (P24385 whole entry partner): as the sequence (P24385 whole entry partner) above

[8] = biological target: CDK2/Cyclin E1 (Homo sapiens, UniProt P24941); test: NanoBRET live-cell target engagement, CDK2-NanoLuc/Cyclin E1 in HEK-293; assay type: binding
[9] = biological target: CDK10/Cyclin L2 (Homo sapiens, UniProt Q15131); test: NanoBRET live-cell target engagement, CDK10-NanoLuc/Cyclin L2 in HEK-293; conditions: CDK10/L2
Chain of CDK10/Cyclin L2 (Q15131 whole entry): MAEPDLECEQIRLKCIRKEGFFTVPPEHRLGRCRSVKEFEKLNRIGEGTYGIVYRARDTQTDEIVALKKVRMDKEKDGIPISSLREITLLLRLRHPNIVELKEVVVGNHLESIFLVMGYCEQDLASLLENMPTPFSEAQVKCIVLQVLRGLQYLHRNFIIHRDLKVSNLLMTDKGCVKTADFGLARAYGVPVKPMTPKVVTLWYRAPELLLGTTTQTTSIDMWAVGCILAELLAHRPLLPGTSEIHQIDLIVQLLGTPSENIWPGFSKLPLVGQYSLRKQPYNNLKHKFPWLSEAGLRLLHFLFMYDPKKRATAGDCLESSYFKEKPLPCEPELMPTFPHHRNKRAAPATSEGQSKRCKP

[10] = biological target: CDK19/Cyclin C (Homo sapiens, UniProt Q9BWU1); test: NanoBRET live-cell target engagement, NanoLuc-CDK19/Cyclin C in HEK-293; conditions: CDK19/C
Chain of CDK19/Cyclin C (Q9BWU1 whole entry): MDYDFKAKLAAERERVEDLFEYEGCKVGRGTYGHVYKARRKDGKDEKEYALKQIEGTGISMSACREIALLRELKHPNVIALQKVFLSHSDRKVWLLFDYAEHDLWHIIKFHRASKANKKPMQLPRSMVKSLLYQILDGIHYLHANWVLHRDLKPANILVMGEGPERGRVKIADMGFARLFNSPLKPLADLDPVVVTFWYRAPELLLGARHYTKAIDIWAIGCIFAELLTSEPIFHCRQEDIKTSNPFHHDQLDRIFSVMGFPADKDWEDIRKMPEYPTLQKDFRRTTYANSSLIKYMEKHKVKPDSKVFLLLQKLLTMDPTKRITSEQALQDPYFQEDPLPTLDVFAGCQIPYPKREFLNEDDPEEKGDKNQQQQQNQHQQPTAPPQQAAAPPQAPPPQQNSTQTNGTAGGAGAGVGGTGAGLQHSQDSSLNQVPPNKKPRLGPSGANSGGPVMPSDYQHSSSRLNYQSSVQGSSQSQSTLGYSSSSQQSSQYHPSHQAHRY
Chain of CDK19/Cyclin C (P24863 whole entry partner): as the sequence (P24863 whole entry partner) above

Chain of CDK1/Cyclin E1 (P06493 whole entry): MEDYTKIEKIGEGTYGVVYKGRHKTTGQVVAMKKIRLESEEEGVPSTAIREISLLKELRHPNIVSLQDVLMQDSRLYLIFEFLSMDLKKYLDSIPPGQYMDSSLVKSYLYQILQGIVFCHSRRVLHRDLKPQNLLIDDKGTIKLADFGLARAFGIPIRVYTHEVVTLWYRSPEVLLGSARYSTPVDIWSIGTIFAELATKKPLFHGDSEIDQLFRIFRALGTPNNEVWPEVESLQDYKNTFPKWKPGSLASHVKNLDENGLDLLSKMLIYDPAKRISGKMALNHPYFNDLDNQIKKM
Chain of CDK1/Cyclin E1 (P24864 whole entry partner): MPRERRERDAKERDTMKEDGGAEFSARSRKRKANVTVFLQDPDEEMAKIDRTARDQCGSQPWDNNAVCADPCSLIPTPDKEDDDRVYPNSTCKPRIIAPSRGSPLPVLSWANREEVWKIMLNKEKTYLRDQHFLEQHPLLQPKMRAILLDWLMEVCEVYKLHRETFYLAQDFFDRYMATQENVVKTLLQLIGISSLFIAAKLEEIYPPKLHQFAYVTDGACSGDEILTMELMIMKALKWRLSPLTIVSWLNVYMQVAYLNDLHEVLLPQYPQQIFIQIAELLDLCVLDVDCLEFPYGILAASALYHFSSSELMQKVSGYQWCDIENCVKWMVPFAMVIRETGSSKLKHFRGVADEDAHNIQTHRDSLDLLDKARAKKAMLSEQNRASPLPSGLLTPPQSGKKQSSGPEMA

Structure (SMILES): CC(C)c1cnn2c(NCc3ccccc3-n3cccn3)nc(OC3CCCNC3)nc12 (stereo not drawn) [LDC4297]
- Inhibition at 10µM (%) ([1]; CDK1/E1, average): 72.7%
- IC50 ([1]; CDK1/E1, average (± SEM where n=3), read-out: IC50): 70 ± 20 nM
- Inhibition at 10µM (%) ([1]; CDK1/E1, experiment 1): 70.9%
- IC50 ([1]; CDK1/E1, experiment 1, read-out: IC50): 70 nM
- Inhibition at 10µM (%) ([1]; CDK1/E1, experiment 2): 74.5%
- IC50 ([1]; CDK1/E1, experiment 2, read-out: IC50): 110 nM
- IC50 ([1]; CDK1/E1, experiment 3, read-out: IC50): 43 nM
- IC50 ([1]; live HEK-293, 2 h, mean ± S.E.M. (n=3) or mean (n=2), read-out: IC50 for CDK/cyclin complexes, CDK1/E1): 70 ± 20 nM
- Inhibition at 10µM (%) ([2]; CDK5/CDK5R1, average): 89.8%
- IC50 ([2]; CDK5/CDK5R1, average (± SEM where n=3), read-out: IC50): 280 ± 50 nM
- Inhibition at 10µM (%) ([2]; CDK5/CDK5R1, experiment 1): 86.3%
- IC50 ([2]; CDK5/CDK5R1, experiment 1, read-out: IC50): 204 nM
- Inhibition at 10µM (%) ([2]; CDK5/CDK5R1, experiment 2): 93.4%
- IC50 ([2]; CDK5/CDK5R1, experiment 2, read-out: IC50): 280 nM
- IC50 ([2]; CDK5/CDK5R1, experiment 3, read-out: IC50): 360 nM
- IC50 ([2]; live HEK-293, 2 h, mean ± S.E.M. (n=3) or mean (n=2), read-out: IC50 for CDK/cyclin complexes, CDK5/R1): 280 ± 50 nM
- Inhibition at 10µM (%) ([3]; average): 42.4%
- Inhibition at 10µM (%) ([3]; experiment 1): 42.8%
- Inhibition at 10µM (%) ([3]; experiment 2): 42.0%
- Inhibition at 10µM (%) ([4]; average): 27.5%
- IC50 ([4]; average (± SEM where n=3)): 110 ± 80 nM
- Inhibition at 10µM (%) ([4]; experiment 1): 31.4%
- IC50 ([4]; experiment 1): 9 nM
- Inhibition at 10µM (%) ([4]; experiment 2): 23.6%
- IC50 ([4]; experiment 2): 270 nM
- IC50 ([4]; experiment 3): 50 nM
- Inhibition at 10µM (%) ([5]; experiment 1): 53.8%
- Inhibition at 10µM (%) ([5]; experiment 2): 57.6%
- Inhibition at 10µM (%) ([6]; average): 3.8%
- Inhibition at 10µM (%) ([6]; experiment 1): 14.8%
- Inhibition at 10µM (%) ([6]; experiment 2): -7.1%
- Inhibition at 10µM (%) ([7]; average): 58.1%
- IC50 ([7]; average (± SEM where n=3)): 80 ± 30 nM
- Inhibition at 10µM (%) ([7]; experiment 1): 52.3%
- IC50 ([7]; experiment 1): 20 nM
- Inhibition at 10µM (%) ([7]; experiment 2): 64.0%
- IC50 ([7]; experiment 2): 100 nM
- IC50 ([7]; experiment 3): 104 nM
- Inhibition at 10µM (%) ([8]; CDK2/E1, average): 88.3%
- IC50 ([8]; CDK2/E1, average (± SEM where n=3), read-out: IC50): 85 ± 2 nM
- Inhibition at 10µM (%) ([8]; CDK2/E1, experiment 1): 85.3%
- IC50 ([8]; CDK2/E1, experiment 1, read-out: IC50): 81 nM
- Inhibition at 10µM (%) ([8]; CDK2/E1, experiment 2): 91.3%
- IC50 ([8]; CDK2/E1, experiment 2, read-out: IC50): 86 nM
- IC50 ([8]; CDK2/E1, experiment 3, read-out: IC50): 85 nM
- IC50 ([8]; live HEK-293, 2 h, mean ± S.E.M. (n=3) or mean (n=2), read-out: IC50 for CDK/cyclin complexes, CDK2/E1): 85 ± 2 nM
- Inhibition at 10µM (%) ([9]; average): 29.7%
- Inhibition at 10µM (%) ([9]; experiment 1): 25.4%
- Inhibition at 10µM (%) ([9]; experiment 2): 34.0%
- Inhibition at 10µM (%) ([10]; average): 18.1%
- Inhibition at 10µM (%) ([10]; experiment 1): 45.9%
